Reference: patent US11999697B2, “Methods and compositions for inhibition of dihydroorotate dehydrogenase” (OHIO STATE INNOVATION FOUNDATION, priority 2018, dated 2024)
Read-outs that look alike come from different tables or passages of the source.

Experiments:
HL-60 = assay: MTS cell proliferation assay, HL-60; type: cell-based; settings: Homo sapiens, 96 hours
Procedure: (§1) Triplicate wells were set up for each condition.
(§2) The assays were carried out in a blinded fashion.

[1] = system: luciferase-expressing MOLM-13 cells; assay: MOLM13 xenograft study, 10 mg/kg; type: in vivo, NCG mice; settings: 10 mg/kg oral gavage, three or five days per week, Days 7 and 14
Procedure: The effect of a representative disclosed compound, Cpd3, on in vivo tumor growth was assessed in a MOLM13 xenograft study. Briefly, male NCG (NOD-Prkdc^em26Cd52//2rg^em26Cd22/NjuCrl) mice (N=12 per group) were given an intravenous injection of 1×10^4 luciferase-expressing MOLM-13 cells. […] Therefore at 3 days post-engraftment (day 0 treatment), mice were injected with luciferin, imaged for leukemia burden, and began dosing with Cpd3 (10 mg/kg daily by oral gavage) or vehicle control (15% ethanol, 30% PEG-400 in PBS). Mice were treated on two different dosing schedules: Cpd3 three days per week (Mon, Wed and Fri) or five days per week (Mon through Fri). Mice on the Mon, Wed, Fri schedule received a vehicle on Tues and Thurs, so that all mice were consistently gavaged five days per week. In addition to day 0, mice were monitored once weekly (days 7 and 14 post-treatment) by IVIS imaging. In order to assess tumor burden, mice were injected with luciferin and imaged on an IVIS imager Days 0, 7, and 14. […] The data for tumor burden at Day 7 (FIG. 11B) and Day 14 (FIG. 11C) is summarized in bar graph format.

[2] = Pharmacokinetic study, oral dosing at different dose levels; type: in vivo, wild type B6 mice; settings: for AUC(0-t) / Cmax / Tmax / half-life: B6, mouse, plasma, oral gavage; for AUC(0-t): po
Excerpt: (§3) LC-MS/MS Assay Materials: Acetonitrile and methanol were LC-MS grade (Fisher Scientific (Fair Lawn, N.J., USA). Other chemicals were as follows: formic Acid (98%, v/v in water; Fisher Scientific, Fair Lawn, N.J., USA); ammonium acetate (Sigma Aldrich Inc.); water: DDH2O obtained from a Millipore water system; and brequinar was obtained from Sigma. (>99% purity). Solvent A: 0.1% formic acid in water. Solvent B: 0.1% Formic Acid in methanol and acetonitrile. Internal Standard (“IS”) precipitation solution was 150 ng/ml internal standards in acetonitrile: water (3:1, v/v).
(§4) Sample preparation: To 10 μL plasma sample was added 100 μL of working IS solution and 20 μL MeOH. Samples were then vortexed for 30 seconds, followed by centrifugation (Eppendorf 5415 R centrifuge) at 10,000 rpm for 8 minutes at 4° C. Supernatant of each sample was transferred into an autosampler vial and sealed with rubber/Teflon crimp cap. Sample volume that was injected onto HPLC was 5 μL. The calibrations samples were prepared at a test compound concentration of 1000, 500, 250, 100, 50, 10, 5 ng/mL in mouse plasma. The quality control samples were as follows: QC1=750 ng/mL, OC2=75 ng/mL, QC3=25 ng/mL, LLOQ=5 ng/mL.
(§5) HPLC Parameters: Accucore Vanquish C18 column (100×2.1 mm, dp=1.5 μm) used in a Vanquish UHPLC system, using a XBridge® BEH C18, 5-μm guard column. Mobile phase: gradient as provided below in Table 8 below. Column temperature: 40° C.±5° C.; Autosampler temperature: 10° C.±5° C. Flow rate: 0.4 ml/min. run time: 5.0 min.
(§6) The mass spectrometer used was a TSQ Quantiva (Thermo Fisher Scientific).
FIGS. 14A-14C show representative pharmacokinetic data obtained following administration of a representative disclosed compound, Cpd3, via oral dosing at different dose levels carried out using the methods described herein below in Examples. Briefly, wild type B6 mice were administered a single dose of Cpd3 by oral gavage at increasing concentrations (10, 25, 50 and 75 mg/kg). Blood plasma was sampled at 15, 30 and 60 minutes, and 2, 6 and 24 hours.

[3] = Pharmacokinetic study, single dose by IV, IP, PO; type: in vivo, wild type B6 mice; settings: 10 mg/kg single dose; for AUC(0-t) / Tmax / bioavailability / half-life: B6, mouse, plasma; for Cmax: B6, mouse plasma
Excerpt: as §3, §4, §5, §6
Briefly, wild type B6 mice were injected with a single dose (10 mg/kg) of Cpd3 by three different injection routes: oral gavage (PO), intravenous (IV) and intraperitoneal (IP) (N=4 per route). The vehicle used was 15% ethanol, 30% polyethylene glycol (PEG), and this same vehicle was used for each delivery route. Cpd3 was prepared as a 2.5 mg/mL concentration and delivered at 10 mg/kg (volume delivered in microliters was 4 times the weight of the mouse in grams). Blood plasma was sampled at time zero (0) and […] additional time points (15, 30 and 60 minutes, and 2, 6 and 24 hours), and the level of Cpd3 determined in mouse plasma by LC-MS/MS assay as described above. The data were used to calculate Cmax, Clast, Tmax, T1/2, AUC, and bioavailability for Cpd3 as appropriate for the route of administration.

OCI-AML3 = assay: MTS cell proliferation assay, OCI-AML3; type: cell-based; settings: Homo sapiens
Procedure: as §1, §2

With `CCOc1ccc(-c2ccc(-c3cc(C(=O)O)c4cc(F)ccc4n3)cc2)cc1` [Cpd3, 2-(4′-ethoxy-[1,1′-biphenyl]-4-yl)-6-fluoroquinoline-4-carboxylic acid] the IC50 (HL-60) was 0.28 µM, the “tumor burden (luciferase expression by IVIS imaging)” value [1] was “able to reduce the tumor burden in the mice” and the AUC(0-t) ([2]; 10 mg/kg, 10 mg/kg, read-out: AUC0-6) was 47 ± 0.92 µg·h/mL. It also gave an AUC(0-t) ([2]; 10 mg/kg, 10 mg/kg, read-out: AUC0-24) of 66.7 ± 6.17 µg·h/mL, an AUC(0-t) ([2]; 25 mg/kg, 25 mg/kg, read-out: AUC0-6) of 101 ± 38 µg·h/mL and an AUC(0-t) ([2]; 25 mg/kg, 25 mg/kg, read-out: AUC0-24) of 171 ± 34.2 µg·h/mL. It also gave an AUC(0-t) ([2]; 50 mg/kg, 50 mg/kg, read-out: AUC0-6) of 333 ± 47.1 µg·h/mL, an AUC(0-t) ([2]; 50 mg/kg, 50 mg/kg, read-out: AUC0-24) of 480 ± 62.1 µg·h/mL and an AUC(0-t) ([2]; 75 mg/kg, 75 mg/kg, read-out: AUC0-6) of 531 ± 103 µg·h/mL. For the same compound, the AUC(0-t) ([2]; 75 mg/kg, 75 mg/kg, read-out: AUC0-24) was 786 ± 39.3 µg·h/mL, the Cmax ([2]; 10 mg/kg) was 18.6 ± 0.93 µg/mL and the Tmax ([2]; 10 mg/kg) was 0.83 ± 0.29 h. The half-life ([2]; 10 mg/kg) was 3.4 ± 0.3 h, the Cmax ([2]; 25 mg/kg) was 35.9 ± 12.5 µg/mL and the Tmax ([2]; 25 mg/kg) was 0.67 ± 0.29 h. For the same compound, the half-life ([2]; 25 mg/kg) was 6.05 ± 1.97 h, the Cmax ([2]; 50 mg/kg) was 93.2 ± 18 µg/mL and the Tmax ([2]; 50 mg/kg) was 0.67 ± 0.29 h. For the same compound, the half-life ([2]; 50 mg/kg) was 3.23 ± 0.77 h, the Cmax ([2]; 75 mg/kg) was 115 ± 8.99 µg/mL and the Tmax ([2]; 75 mg/kg) was 0.75 ± 0.35 h. The half-life ([2]; 75 mg/kg) was 2.76 ± 0.3 h, the “relationship between dose and exposure” value ([2]; oral gavage, 10, 25, 50 and 75 mg/kg) was “linear relationship between dose and exposure” and the AUC(0-t) ([3]; IP) was 120 ± 228 µg·h/mL. It also gave a Tmax ([3]; IP) of 0.31 ± 0.13 h, a bioavailability ([3]; IP) of 89% and a half-life ([3]; IP) of 2.2 ± 0.11 h. It also gave an AUC(0-t) ([3]; IV) of 134 ± 217 µg·h/mL, a half-life ([3]; IV) of 2.3 ± 0.19 h and an AUC(0-t) ([3]; PO) of 425 ± 163 µg·h/mL. It also gave a Tmax ([3]; PO) of 0.5 h, a bioavailability ([3]; PO) of 32% and a half-life ([3]; PO) of 5.6 ± 1.95 h. For the same compound, the Cmax ([3]; IP) was 40.2 ± 9.3 µg/mL, the Cmax ([3]; IV) was 36.4 ± 14.3 µg/mL and the Cmax ([3]; PO) was 12.2 ± 4.3 µg/mL. The “Clast” value ([3]; IP) was 0.016 ± 0.007 µg/mL, the “Clast” value ([3]; IV) was 0.022 ± 0.016 µg/mL and the “Clast” value ([3]; PO) was 0.31 ± 0.18 µg/mL. It also gave an IC50 (OCI-AML3; OCI-AML-3, 96 hour, Table 6, read-out: 96 hour IC50 (nM) in OCI-AML-3 cell line) of 321 nM and an IC50 (OCI-AML3; OCI-AML-3, 96 hours, read-out: IC50 (μM) at 96 hours, OCI-AML3) of 610 nM.
